Reference: patent US20260035479A1, “GD2 BI-SPECIFIC INVARIANT NATURAL KILLER T CELL ENGAGERS AND METHODS OF USE THEREOF” (The Children's Hospital of Philadelphia, priority 2022, published 2026)

What was measured:
hepatic iNKTs = test: Glycolipid antigen-iNKT stimulation in mice, hepatic iNKT cytokine expression by flow cytometry; format: in vivo, C57BL/6 mice; settings: for IFN-γ MFI relative to PBS: n=2; for iNKT expression of intracellular IL-4 vs PBS / iNKT expression of surface CD107a vs PBS / expression of IFN-γ in iNKTs: acute stimulation, 4 μg intraperitoneal; for expression of IFN-γ in iNKTs: livers harvested at hour 4, PBS control 10.1%
Experimental: FIG. 7: iNKT Response to Glycolipid Antigen Stimulation. Two C57BL/6 mice per group were injected with phosphate-buffered saline (PBS), alpha-galactosyl ceramide (a-GalCer), or C34 at hour 0. At hour 4, mice were euthanized, their livers were excised and hepatic lymphocytes isolated and stained for NK1.1+ TCR-β+ mononuclear single cells, and intracellular IFN-γ was assayed by flow cytometry. The IFN-γ positive gate was drawn based on unstained controls. Representative data shown are from one mouse.
FIGS. 8A-8C: Acute and Chronic cytokine expression following GAg-stimulation of iNKTs. Two C57BL/6 mice per group were injected with 4 μg of C34, alpha galactosyl-ceramide (aGC), or Phosphate-Buffered Saline (PBS), in acute or chronic stimulation groups. Hepatic lymphocytes were then isolated and stained for NK1.1, TCR-β, and interferon-gamma (IFN-γ) with intra- and extracellular staining methods. (FIG. 8A) IFN-γ mean fluorescence intensity (MFI) of iNKTs. (FIG. 8B) CD107a MFI of iNKTs. (FIG. 8C) Interleukin-4 MFI of iNKTs.
Glycolipid antigen-iNKT stimulation experiments. C57/BL6 mice were injected with free glycolipid antigen or phosphate-buffered saline (PBS) intraperitoneally at a dose of 4 μg per injection in “acute” and “chronic” exposure situations. In acute stimulation conditions, intraperitoneal injections were given at hour 0, then at hour 4 mice were sacrificed and livers harvested and processed as above. In chronic stimulation conditions, animals received the 4 μg dose of glycolipid antigen days 0, 4, and 7. Livers were then harvested 4 hours after the final intraperitoneal injection and processed as described above. Hepatic mononuclear cells were extracellularly stained with fluorophore-labeled loaded-CD1d tetramer, anti-NK1.1, anti-CD107a, and then fixed and stained intracellularly with anti-IFN-Y, anti-IL-4, anti-TCR-β using a Fixation/Permeabilization kit (BD) and analyzed on FACSVerse flow cytometer (BD).
Data Analysis. Cytokinc expression analysis: FCS files were analyzed using Flowjo (TreeStar) software. Mean fluorescence intensity (MFI) of IFN-γ CD107a, and IL-4 on iNKT cells was compared between PBS, aGC, and C34-stimulated groups using Graphpad (Prism) and compared using Student's t-test between two Groups (ex: PBS vs aGC), and one-way ANOVA for comparison of PBS, aGC, and C34.

EL4 lymphoma cells = test: 51Cr-release killing assay of EL4 lymphoma cells with murine hepatic lymphocytes or sorted iNKTs; format: cell-based; settings: for percent specific lysis relative to control: sorted murine iNKTs as effectors, p=0.014 C34 vs control; for percent specific lysis in comparison with control: unsorted hepatic lymphocytes as effectors, 100 ng/mL glycolipid antigen, p=0.0133 C34 vs nothing added
Experimental: FIGS. 9A-9B: iNKT-mediated cytotoxicity with glycolipid antigen (GAg) stimulation. (FIG. 9A) C57BL/6 hepatic lymphocytes (effectors) were co-cultured for 18 hours with ^51Cr-loaded EL4 lymphoma cells (targets) in triplicates at E:T ratios of 2.5:1, 5:1,10:1, 20:1, and 40:1; these cocultures were stimulated with either alpha galactosyl-ceramide (a-GalCer) or C34 at indicated concentrations or left unstimulated (Nothing added). (FIG. 9B) Similar experiments were performed with flow cytometrically sorted murine hepatic iNKTs as effector populations.
^51Cr Killing Assays. EL4 lymphoma cells were used as targets and were labeled with ^51Cr (Perkin-Elmer) at a ratio of 1 μCi per 1×10^6 cells at 37° C. for 1 hour; excess ^51Cr was removed by extensive washing in RPMI media as described previously (Orange et al., 2022). Murine hepatic iNKT-enriched cell populations and flow cytometrically sorted iNKTs were plated in 96-well round-bottom wells. 2×10^5 target cells were then mixed with these iNKTs in each well at designated effector to target ratios with 100 ng/mL of glycolipid antigen in triplicate. After 16 hours, supernatants from each well were transferred to a Deepwell Lumiplate (Perkin Elmer), dried overnight, and then analyzed by a TopCount gamma radiation detector (Perkin Elmer). Spontaneous release was determined by collecting supernatants from cultures of targets alone, while maximum lysis was measured from the supernatants of target cells that were fully lysed with detergent. Percent specific lysis was calculated by the equation: 100× (sample lysis cpm-spontaneously released cpm)/(maximum cpm-spontaneously released cpm), as described previously (Orange et al., 2022).
^51Cr-release killing assays: Percent specific lysis was calculated as described above and triplicate values were analyzed using Graphpad (Prism). Mean values and standard errors of the mean were calculated. Percent specific lysis among the three groups were compared using one-way ANOVA. Significance was set at p value of <0.05.

[1] = test system: patients with advanced solid tumors; settings: Giaccone et al., 2002; cited from earlier work
iNKTs = settings: Parekh, 2005; cited from earlier work
[2] = acute stimulation protocol, p=0.012 aGC vs PBS, p=0.0034 C34 vs PBS
[3] = chronic stimulation protocol, three intraperitoneal injections over 7 days, p=0.0010 for C34

Compound | IFN-γ MFI relative to PBS (hepatic iNKTs; [2]) | iNKT expression of intracellular IL-4 vs PBS (hepatic iNKTs) | iNKT expression of surface CD107a vs PBS (hepatic iNKTs) | expression of IFN-γ in iNKTs (hepatic iNKTs) | IFN-γ MFI relative to PBS (hepatic iNKTs; [3]) | percent specific lysis relative to control (EL4 lymphoma cells) | percent specific lysis in comparison with control (EL4 lymphoma cells) | disease response [1] | dose-limiting toxicities [1] | patients with increased serum GM-CSF and TNF-α [1] | duration of iNKT anergy following stimulation (iNKTs) | IFN-γ MFI, chronic vs acute group (hepatic iNKTs; chronic versus acute stimulation with the same glycolipid)
CCCCCCCCCCCCCCCCCCCCCCCCCC(=O)N[C@@H](CO[C@H]1O[C@H](CO)[C@H](O)[C@H](O)[C@H]1O)[C@H](O)[C@H](O)CCCCCCCCCCCCCC [aGC, α-GalactosylCeramide] | increased | No significant differences | No significant differences | 30.4 % of iNKTs | no difference | greater | higher | without disease response | no dose-limiting toxicities | 5 of 24 | up to 6 months | –
phenyl α-GalactosylCeramide [C34] | increased | No significant differences | No significant differences | 71.4 % of iNKTs | greater | greater | higher | – | – | – | – | not a significant difference
